Earlier results in patent publication US4644054A, “Calcitonin analogs with amino acid substituents at position 31” (priority 1985, dated 1987).
Bridge positions count the residues as written; N and C are the ends. Ends that are not written are not given here.

Settings: compared with natural human calcitonin

Substance | activity relative to natural human calcitonin
Salmon 1 calcitonin | thirty to forty times more active
human calcitonin analog with Serine^29 and Threonine^31substituents: human calcitonin analog with Serine at position 29 and Threonine at position 31 (Maier et al. 1974) (CGNLSTCMLGTYTQDFNKFHTFPQTAIGSGTP; disulfide 1-7; ends not checked; UniProt P01258 85-116, looked up, variant V29S A31T) | five times more active
